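Compound exposure: 48 hours, 5 concentrations, 96-well plates. At the GI50, growth is halved.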 Calls of active or inactive are those of the source. Cut-off read from the data, not from the text of the source: active = GI50 up to about 1.1 µM and inactive = higher.
Key:
Assay in all cases: growth of human tumour cells (NCI), 48 h
786-0 = test system: 786-0
A549 = test system: A549
ACHN = test system: ACHN
CAKI-1 = test system: CAKI-1
COLO 205 = test system: COLO 205
EKVX = test system: EKVX
HCC 2998 = test system: HCC 2998
MCF7 = test system: MCF7
MDA-MB-231 = test system: MDA-MB-231
NCI/ADR-RES = test system: NCI/ADR-RES
OVCAR-4 = test system: OVCAR-4
OVCAR-8 = test system: OVCAR-8
RPMI-8226 = test system: RPMI-8226
SF-295 = test system: SF-295
SK-MEL-28 = test system: SK-MEL-28
SN12C = test system: SN12C
SR = test system: SR
UACC-62 = test system: UACC-62
UO-31 = test system: UO-31

Measured: GI50

CC(C)Oc1c(-c2c(OC(C)C)c(=O)c2=O)c(=O)c1=O
inactive: 786-0 > 52.5 µM | A549 > 100 µM | ACHN > 70.6 µM | CAKI-1 > 100 µM | COLO 205 > 29.7 µM | EKVX > 48.5 µM | HCC 2998 > 55.3 µM | MCF7 > 20.2 µM | MDA-MB-231 > 36.7 µM | NCI/ADR-RES 4.81 µM | OVCAR-4 > 49.7 µM | OVCAR-8 > 34.7 µM | RPMI-8226 29.9 µM | SF-295 > 65 µM | SK-MEL-28 > 68.2 µM | SN12C > 49.2 µM | SR > 100 µM | UACC-62 > 40 µM | UO-31 > 58.5 µM

O=C(/C=C/c1csc(-c2ccccc2)n1)NCc1ccc(C(=O)NCc2ccccc2)cc1
inactive: 786-0 33 µM | A549 > 100 µM | ACHN 67.1 µM | CAKI-1 25.2 µM | COLO 205 > 100 µM | EKVX > 100 µM | HCC 2998 > 100 µM | MCF7 > 100 µM | MDA-MB-231 18.7 µM | NCI/ADR-RES 50.8 µM | OVCAR-4 > 100 µM | OVCAR-8 26.4 µM | RPMI-8226 > 100 µM | SF-295 30.4 µM | SK-MEL-28 > 100 µM | SN12C > 100 µM | SR > 100 µM | UACC-62 > 100 µM | UO-31 > 100 µM

COc1cc2c(cc1C1COc3cc4occc4cc3C1=O)OCO2 (stereo not drawn)
inactive: 786-0 > 100 µM | A549 7.11 µM | ACHN > 100 µM | CAKI-1 67 µM | COLO 205 > 100 µM | EKVX 87.3 µM | HCC 2998 98.6 µM | MCF7 17.4 µM | MDA-MB-231 > 100 µM | NCI/ADR-RES 17.1 µM | OVCAR-4 2.81 µM | OVCAR-8 21.1 µM | RPMI-8226 2.67 µM | SF-295 53.8 µM | SK-MEL-28 40.1 µM | SN12C > 100 µM | SR 49.1 µM | UACC-62 > 100 µM | UO-31 > 100 µM

O=C1N=C(c2ccccc2)OC1C(=O)c1ccccc1 (stereo not drawn)
inactive: 786-0 > 100 µM | A549 > 100 µM | ACHN > 100 µM | CAKI-1 > 100 µM | COLO 205 > 100 µM | EKVX > 100 µM | HCC 2998 > 100 µM | MCF7 > 100 µM | MDA-MB-231 > 100 µM | NCI/ADR-RES > 100 µM | OVCAR-4 > 100 µM | OVCAR-8 > 100 µM | RPMI-8226 > 100 µM | SF-295 > 100 µM | SK-MEL-28 > 100 µM | SN12C > 100 µM | SR > 100 µM | UACC-62 > 100 µM | UO-31 > 100 µM

ON[C@H]1C[C@@H](n2cnc3c(NC4CC4)ncnc32)[C@H](O)[C@@H]1O
inactive: 786-0 > 100 µM | A549 > 100 µM | ACHN > 100 µM | CAKI-1 > 100 µM | COLO 205 > 100 µM | EKVX > 100 µM | HCC 2998 > 100 µM | MCF7 > 100 µM | MDA-MB-231 > 100 µM | NCI/ADR-RES > 100 µM | OVCAR-4 > 100 µM | OVCAR-8 > 100 µM | RPMI-8226 > 100 µM | SF-295 > 100 µM | SK-MEL-28 > 100 µM | SN12C > 100 µM | SR > 100 µM | UACC-62 > 100 µM | UO-31 > 100 µM

COc1ccc2c(c1)CC[C@@H]1[C@@H]2CC[C@]2(C)/C(=N/OCCN3CCCC3)CC[C@@H]12
inactive: 786-0 1.75 µM | A549 2.78 µM | ACHN 4.45 µM | CAKI-1 1.75 µM | COLO 205 1.67 µM | EKVX 4.57 µM | HCC 2998 1.85 µM | MCF7 3.03 µM | MDA-MB-231 3.83 µM | NCI/ADR-RES 8.61 µM | OVCAR-4 12 µM | OVCAR-8 3.81 µM | RPMI-8226 1.5 µM | SF-295 2.35 µM | SK-MEL-28 1.39 µM | SN12C 6.52 µM | SR 1.97 µM | UACC-62 1.82 µM | UO-31 2.81 µM

C[n+]1cn(-c2nc3ccccc3nc2[N-]S(=O)(=O)c2ccccc2)c2ccccc21
inactive: 786-0 > 100 µM | A549 > 100 µM | ACHN > 100 µM | CAKI-1 > 100 µM | COLO 205 > 100 µM | EKVX > 100 µM | HCC 2998 > 100 µM | MCF7 > 100 µM | MDA-MB-231 > 100 µM | NCI/ADR-RES > 100 µM | OVCAR-4 > 100 µM | OVCAR-8 > 100 µM | RPMI-8226 > 100 µM | SF-295 > 100 µM | SK-MEL-28 > 100 µM | SN12C > 100 µM | SR > 100 µM | UACC-62 > 100 µM | UO-31 80.7 µM

Reference: ChEMBL document CHEMBL1201862, “PubChem BioAssay data set” (2004)
